Source: ChEMBL document CHEMBL6182916, “Unexpected Discovery of a Novel Triphenylphosphonium Alkylalcohol That Triggers Cancer Cell Death via Mitophagy and Ferroptosis” (J Med Chem, 2025)
The source made the active and inactive calls. The calls are words filed in the database; no cut-off is given here.

Experiments:
HCC827 [1] = assay: Antiproliferative activity against human HCC827 cells assessed as inhibition of cell growth measured after 72 hrs by MTT assay; assay type: functional, cell-based; details: HCC827, 72 h
A-375 = assay: Antiproliferative activity against human A-375 cells assessed as inhibition of cell growth measured after 72 hrs by MTT assay; assay type: functional, cell-based; details: A-375, 72 h
Mitochondrial membrane [2] = assay: Induction of mitochondrial membrane depolarization in human HCC827 cells assessed as increase in J-monomer ratio at 0.125 to 0.5 uM incubated for 4 hrs by JC-1 staining based flow cytometric analysis; assay type: cell membranes; details: dose 0.125-0.5 µM
Mitochondrial membrane [3] = assay: Induction of mitochondrial membrane depolarization in human HCC827 cells assessed as increase green fluorescence intensity at 0.125 to 0.5 uM incubated for 4 hrs by rhodamine 123 staining based confocal microscopy analysis; assay type: cell membranes; details: dose 0.125-0.5 µM
HCC827 [4] = assay: Induction of mitophagy in human HCC827 cells assessed as increase in LC3-II/LC-3-I ratio at 0.5 uM measured after 24 hrs in presence of Baf A1 by Western blot analysis; assay type: functional, cell-based
HEK-293T [5] = assay: Downregulation of TIMM23 expression level in human HEK293T cells; assay type: functional, cell-based; details: dose 0.25-0.5 µM
HEK-293T [6] = assay: Downregulation of […] expression level in human HEK293T cells; assay type: functional, cell-based; details: dose 0.25-0.5 µM
HEK-293T [7] = assay: Downregulation of TIMM23 expression level in human HEK293T cells harbouring PINK knockout at 0.25 to 0.5 uM; assay type: functional, cell-based; details: dose 0.25-0.5 µM
HCC827 [8] = assay: Induction of mitochondrial dysfunction in human HCC827 cells assessed as appearance of vacuoles with damaged mitochondria at 1 uM after 24 hrs by TEM analysis; assay type: functional, cell-based
HCC827 [9] = assay: Induction of cell cycle arrest in human HCC827 cells assessed as accumulation of cells at G2 phase at 0.2 uM incubated for 24 hrs by PI staining based flow cytometry analysis (reference value: 7.15%); assay type: functional
HCC827 [10] = assay: Induction of ferroptosis in human HCC827 cells assessed as decrease in GSH level incubated for 24 hrs by absorbance based analysis; assay type: functional, cell-based; details: dose 0.5-2 µM
HCC827 [11] = assay: Induction of ferroptosis in human HCC827 cells assessed as decrease in GPX4 expression incubated for 24 hrs; assay type: functional, cell-based; details: dose 0.25-0.5 µM
HCC827 [12] = assay: Induction of apoptosis in human HCC827 cells assessed as early apoptotic cells at 0.5 uM measured after 48 hrs by annexin V and PI staining based flow cytometry analysis (reference value: 0.70%); assay type: functional
HCC827 [13] = assay: Induction of apoptosis in human HCC827 cells assessed as necrotic cells at 0.25 uM measured after 48 hrs by annexin V and PI staining based flow cytometry analysis (reference value: 1.18%); assay type: functional
HCC827 [14] = assay: Induction of apoptosis in human HCC827 cells assessed as early apoptotic cells at 1 uM measured after 36 hrs by annexin V and PI staining based flow cytometry analysis (reference value: 1.80%); assay type: functional
HCC827 [15] = assay: Induction of apoptosis in human HCC827 cells assessed as late apoptotic cells at 1 uM measured after 24 hrs by annexin V and PI staining based flow cytometry analysis (reference value: 2.18%); assay type: functional
HCC827 [16] = assay: Antiproliferative activity against human HCC827 cells assessed as cell viability at 1 uM measured after 48 hrs in presence of SAS by MTT assay relative to control; assay type: functional; details: read-out: Activity
HCC827 [17] = assay: Antiproliferative activity against human HCC827 cells assessed as increase in cell viability at 1 uM measured after 48 hrs in presence of BFA by MTT assay; assay type: functional, cell-based
HCC827 [18] = assay: Effect on UQCRC2 expression in human HCC827 cells at 0.25 to 0.5 uM; assay type: functional, cell-based; details: dose 0.25-0.5 µM
HCC827 [19] = assay: Effect on COX1 expression in human HCC827 cells at 0.25 to 0.5 uM incubated for 24 hrs by Western blot analysis; assay type: functional, cell-based; details: dose 0.25-0.5 µM
[20] = target: T1, Heat shock protein 75 kDa, mitochondrial (Homo sapiens) (UniProt Q12931); assay: Inhibition of human TRAP1 assessed as fold increase in ATPase activity at 20 uM
T1 sequence (whole entry): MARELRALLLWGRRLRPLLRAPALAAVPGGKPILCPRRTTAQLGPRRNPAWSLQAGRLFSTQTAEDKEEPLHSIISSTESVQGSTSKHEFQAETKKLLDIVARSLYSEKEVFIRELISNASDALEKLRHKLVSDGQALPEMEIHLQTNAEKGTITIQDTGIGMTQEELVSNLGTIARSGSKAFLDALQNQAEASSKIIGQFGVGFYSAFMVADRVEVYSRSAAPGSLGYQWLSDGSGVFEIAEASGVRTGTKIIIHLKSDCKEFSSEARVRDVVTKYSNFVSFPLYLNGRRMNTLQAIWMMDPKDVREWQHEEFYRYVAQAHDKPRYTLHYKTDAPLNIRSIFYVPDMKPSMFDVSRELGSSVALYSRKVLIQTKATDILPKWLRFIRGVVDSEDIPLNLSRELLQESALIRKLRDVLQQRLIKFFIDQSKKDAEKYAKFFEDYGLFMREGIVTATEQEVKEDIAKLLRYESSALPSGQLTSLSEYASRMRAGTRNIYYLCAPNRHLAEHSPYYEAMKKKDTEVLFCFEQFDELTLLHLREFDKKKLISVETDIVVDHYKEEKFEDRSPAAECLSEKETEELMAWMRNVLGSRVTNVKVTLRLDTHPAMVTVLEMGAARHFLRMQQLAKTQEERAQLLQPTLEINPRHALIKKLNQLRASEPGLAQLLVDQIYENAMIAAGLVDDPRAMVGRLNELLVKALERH

HCC827 [21] = assay: Downregulation of […] protein level in human HCC827 cells at 0.25 to 0.5 uM measured after 12 hrs; assay type: functional, cell-based; details: dose 0.25-0.5 µM
[22] = Toxicity in female BALB/c mouse assessed as animal death at 30 mg/kg, ip measured for 7 days; assay type: organism-based; details: in vivo, 168 h, time 7 day
[23] = Toxicity in female BALB/c mouse assessed as histopathological changes in spleen at 30 mg/kg, ip measured for 7 days by H and E staining based analysis; assay type: organism-based; details: in vivo, 168 h, time 7 day
[24] = Toxicity in female Kunming mouse assessed as change in body weight at 50 mg/kg, ip measured every two days for 7 days; assay type: organism-based; details: in vivo, 168 h, time 7 day
[25] = Toxicity in male Kunming mouse assessed as change in body weight at 70 mg/kg, ip measured every two days for 7 days; assay type: organism-based; details: in vivo, 168 h, time 7 day
[26] = Toxicity in male Kunming mouse assessed as animal death at 70 mg/kg, ip measured every two days for 7 days; assay type: organism-based; details: in vivo, 168 h, time 7 day
[27] = Toxicity in female Kunming mouse assessed as animal death at 70 mg/kg, ip measured every two days for 7 days; assay type: organism-based; details: in vivo, 168 h, time 7 day
[28] = Toxicity in female nude mouse assessed as effect om weight loss at 5 to 10 mg/kg, ip measured after 14 days; assay type: organism-based; details: in vivo, 336 h, dose 5-10 mg/kg, time 14 day
HCC827 [29] = assay: Antimetastatic activity against human HCC827 cells xenografted in female nude mouse model assessed as decrease in snail level at 5 to 10 mg/kg, ip by Western blot analysis; assay type: functional, organism-based; details: dose 5-10 mg/kg
HeLa = assay: Induction of mitophagy in human HeLa cells assessed as colocalization of mitochondria and lysosomes at 0.5 uM by lysotracker red staining based confocal microscopy analysis; assay type: functional, cell-based

In the case of Cc1ccc([P+](CCCCCCCCCCO)(c2ccc(C)cc2)c2ccc(C)cc2)cc1.[Br-], the IC50 (HCC827 [1]) is reported as 0.07 µM, the IC50 (A-375) is reported as 0.14 µM and the Activity (Mitochondrial membrane [2]) is reported as “Active”. The Activity (Mitochondrial membrane [3]) was “inactive”, the Activity (HCC827 [4]) was “inactive” and the Activity (HEK-293T [5]) was “Dose-dependent-effect”. The Activity (HEK-293T [6]) was “Dose-dependent-effect”, the Activity (HEK-293T [7]) was “inactive” and the Activity (HCC827 [8]) was “Active”. For the same molecule, the Activity (HCC827 [9]) was 3.91%, the Activity (HCC827 [10]) was “Dose-dependent-effect” and the Activity (HCC827 [11]) was “Dose-dependent-effect”. The Activity (HCC827 [12]) was 2.34%, the Activity (HCC827 [13]) was 2.91% and the Activity (HCC827 [14]) was 0.18%. The Activity (HCC827 [15]) was 3.84%, the viability at 1 µM (HCC827 [16]) was 7.48% and the Activity (HCC827 [17]) was “Active”. For the same molecule, the Activity (HCC827 [18]) was “Active”, the Activity (HCC827 [19]) was “Active” and the fold change (FC) [20] was 2. For the same molecule, the Activity (HCC827 [21]) was “Active”, the Activity [22] was “Non-toxic” and the Activity [23] was “Non-toxic”. For the same molecule, the Activity [24] was “Toxic”, the Activity [25] was “Toxic” and the Activity [26] was “Toxic”. For the same molecule, the Activity [27] was “Toxic”, the Activity [28] was “Non-toxic” and the Activity (HCC827 [29]) was “Active”. The Activity (HeLa) was “Active”.
